Measured values: US6235707A, “Anticoagulant peptidyl-arginine aldehyde derivatives” (Gyogyszerkutato Intezet Kft., priority 1996, dated 2001)
Like-named read-outs stand apart in the source and are kept apart here. Square brackets hold non-standard residues; d marks the D form. Peptide text beside a SMILES is read from it. * marks the point of attachment. dCba = N[C@H](CC1CCC1)C(=O)O; Moc = COC(=O)*

Tests used:
[1] = test system: citrate plasma; assay: prothrombin time (PT) plasma clotting test; assay type: biochemical
Description: (§1) Anticoagulant activity (i.e. inhibition of the proteolytic reactions in the process) is measured by anticoagulant tests, e.g. in the thrombin time (TT), activated partial thromboplastin time (APTT) and prothrombin time (PT) tests [E. J. W. Bovie et al., Mayo Clinic Laboratory Manual of Haemostasis; W. B. Saunders Co., Philadelphia (1971)]. Plasma, inhibited in spontaneous coagulation, e.g. citrate-plasma, is made to coagulate and the required coagulation time is measured. Upon the action of anticoagulants the coagulation time is prolonged proportionally to the inhibition of the reaction(s) in the process. The anticoagulant effect can be characterised by the substance concentration required to prolong the coagulation time twofold compared to the control (IC50). The effect of anticoagulants on individual coagulant proteases is measured by the amidolytic method [R. Lottenberg et al., Methods in Enzymol. 80, 341 (1981); G. Cleason, Blood Coagulation and Fibrinolysis 5, 411 (1994)]. The isolated active factor (e.g. thrombin, fXa) and its chromogen or fluorogen peptide-amide substrate are reacted in the presence or absence of the inhibitor, resp. The enzyme inhibiting action is characterised by the inhibitory constant (IC50) measured during amidolysis.
(§2) In the TT test coagulation is initiated by the thrombin added to the citrate plasma. In the system 22 pmol/ml of thrombin is functioning and its inhibition can be measured on the fibrinogen (one of the natural substrates of thrombin) in the presence of plasma components. In the APTT and PT tests the full coagulation process takes place. Depending on the activator fX is activated either by the extrinsic or the intrinsic pathway. The generated fXa activates prothrombin to thrombin which, in turn, triggers plasma coagulation. The coagulation time is prolonged if the enzymes or one of them is inhibited by the inhibitor. In the APTT and PT tests at most 40 pmol/ml Xa can be generated (this is the full amount of factor X present in both systems) while 150 pmol/ml (APTT) and 350 pmol/ml (PT) of thrombin are generated [B. Kaiser et al., Thromb. Res. 65, 157 (1992)].
(§3) The in vitro anticoagulant effects of the compounds of general formula (I) was measured by the prothrombin time (PT), activated partial thromboplastin time (APTT) and thrombin time (TT) tests [D. Bagdy et al., Thromb. Haemost. 67, 325 (1992)]. The fxa-inhibiting effect of the compounds was also determined using the Bz-Ile-Glu-Gly-Arg-pNA chromogen substrate (see method M6).

[2] = test system: citrate plasma; assay: activated partial thromboplastin time (APTT) plasma clotting test; assay type: biochemical
Description: as §1, §2, §3

[3] = biological target: thrombin (Homo sapiens, UniProt P00734); assay: thrombin time (TT) plasma clotting test; assay type: biochemical
Description: as §1, §2, §3

[4] = biological target: T1, isolated human fXa (Homo sapiens, UniProt P00742); assay: fXa inhibition in solution, amidolytic method on Bz-Ile-Glu-Gly-Arg-pNA chromogen substrate (Method M6); assay type: biochemical; settings: for IC50: isolated human fXa, Bz-Ile-Glu-Gly-Arg-pNA
T1 construct: The isolated active factor (e.g. thrombin, fXa) and its chromogen or fluorogen peptide-amide substrate are reacted; purchased SIGMA
T1 sequence (P00742 235-488 limits assumed): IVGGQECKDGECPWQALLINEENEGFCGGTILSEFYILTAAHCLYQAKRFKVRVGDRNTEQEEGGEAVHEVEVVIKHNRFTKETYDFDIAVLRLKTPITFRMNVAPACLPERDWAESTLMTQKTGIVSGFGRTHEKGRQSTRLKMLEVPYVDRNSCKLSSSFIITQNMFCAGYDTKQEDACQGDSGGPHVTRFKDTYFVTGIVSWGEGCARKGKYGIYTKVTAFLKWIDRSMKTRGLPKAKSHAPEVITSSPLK
T1 sequence (P00742 41-179 partner limits assumed): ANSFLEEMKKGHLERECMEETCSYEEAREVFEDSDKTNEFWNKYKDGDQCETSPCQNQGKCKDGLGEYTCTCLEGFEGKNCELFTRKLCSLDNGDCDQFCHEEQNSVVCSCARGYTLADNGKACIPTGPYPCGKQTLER
Description: as §1, §3
Determination of Factor Xa Inhibition in Solution on a 96-well Microtitre Plate
a) By means of phosphate buffer (0.1M sodium phosphate and 0.05M sodium chloride, pH=7.4) 1.3 E/ml solution is prepared from human factor Xa (SIGMA), and 0.1-1.0-10 and 100 μg/ml solutions from the peptide inhibitors. The Bz-Ile-Glu-Gly-Arg-pNA substrate is used in distilled water solution ([…]).
b) From the control and the peptide inhibitor solutions (3 parallel samples of each concentration) 30-30 μl aliquots are placed into the wells. 30 μl of factor Xa, 90 μl of buffer and 150 μl of substrate are added to the peptide solution and the extinction is determined after 10 min. at 405 nm. Thereafter the steps are the same as in M2/c.

[5] = biological target: T2, clot-bound thrombin (Homo sapiens, UniProt P00734); assay: inhibition of plasma clot-bound thrombin (Methods M1, M3); assay type: biochemical; settings: clot from platelet-rich human plasma; Tos-Gly-Pro-Arg-pNA substrate
T2 construct: from tissue; host or cells: clot of recalcified human platelet-rich plasma
Description: (§4) Plasma-clot was obtained by recalcificating platelet-rich human plasma, and fibrin gel by clotting human fibrinogen with human thrombin. For the activity measures of fXa and thrombin Z-D-Arg-Gly-Arg-pNA or Tos-Gly-Pro-Arg-pNA substrates were used in agreement with Methods M1-M3.
Preparation of Clots from Human Plasma
a) Platelet-rich plasma is prepared by centrifuging a 9:1 mixture of human blood and 3.8% sodium citrate solution for 5 min. at 240×g.
b) 200 μl platelet-rich plasma and 80 μl 40 mM CaCl2 solution are allowed to stand at room temperature for 1 hour. The thus-formed clot is washed with 6×2 ml of 0.9% NaCl solution with gentle stirring to remove the residual enzymes (thrombin and factor Xa). The washing medium is assayed for thrombin-like activity as follows:
c) To 400 μl of washing medium 100 μl of 1 mM Tos-Gly-Pro-Arg-pNA substrate solution is added, the mixture is incubated for 30 min at 37° C., then the reaction is stopped with 100 μl of 50% acetic acid. From this mixture 150 μl aliquots are applied onto a 96-well microtitre plate and the extinction coefficients are measured at 405 nm (ELISA READER SLT Laborinstrument GmbH, Austria). In case of efficient washing the extinction coefficient is smaller than 5% of that of the control.
Determination of the Inhibition of Clot-bound Thrombin
a) Solutions are made from the peptide inhibitors according to Method M2/a.
b) After draining off the washing medium the clots (Method M1) are mixed with 400 μl of peptide solution (3 parallel samples with each concentration), then the samples are incubated for 5 min. at 37° C. together with a separate 400 μl buffer serving as control. Then 100 μl […] 1 mM Tos-Gly-Pro-Arg-pNA substrate solution is added and the incubation continued for further 30 min. at 37° C. The experiment is continued according to M2/c.

[6] = biological target: T3, fibrin gel-bound thrombin (Homo sapiens, UniProt P00734); assay: inhibition of fibrin gel-bound thrombin (Methods M4, M5); assay type: biochemical; settings: human fibrinogen clotted with human thrombin; Tos-Gly-Pro-Arg-pNA substrate
T3 construct: purchased SIGMA
Description: as §4
Preparation of Fibrin Clots
a) To each reaction vessel 200 μl of human fibrinogen (SIGMA), 25 μl of 25 NIH/E/ml human thrombin (SIGMA) and 40 μl of 100 mM CaCl2 solution is placed and the mixtures are allowed to stand for 1 hour at 20-22° C. The fibrin clots are washed with isotonic NaCl-solution (3×2 ml) under gentle stirring to remove traces of thrombin and sedimented for 5 min. The effectiveness of the washing can be checked by the method M1/c.
Determination of Inhibition of Fibrin-clot Bound Thrombin
a) 0.1-1.0-10 and 100 μg/ml solutions are made from the peptide inhibitors with Hepes/NaCl buffer (0.001 M Hepes and 0.1 M NaCl, pH=7.4).
b) Measurements are continued according to M3/b.

[7] = biological target: urokinase (UK) (Homo sapiens, UniProt P00749); assay: fibrin-plate method, plasmin formation induced by urokinase; assay type: biochemical; settings: for IC50: fibrin plate, hydrolysed area reduced to 50% of control; for B: relative efficiency, UK: related to the activity of C1 (1/IC50 = 1)
Source text: (§5) The inhibitory effect of the new compounds of the invention on plasmin (PL) as well as on plasmin formation induced by tissue plasminogen activator (tPA) and urokinase (UK) was examined by the fibrin-plate method [D. Bagdy et al.: Thromb. Haemost. 67, 325 (1992)]. Compounds C1 and C5 served as controls. […] V. Jackson et al.: J. Cardiovasc. Pharmacol. 21, 587 (1993))]. In Table 4 the results obtained with the new compounds 1 and 2 as well as those with controls C1 and C5 are presented as an example.

[8] = biological target: tissue plasminogen activator (tPA) (Homo sapiens, UniProt P00750); assay: fibrin-plate method, plasmin formation induced by tPA; assay type: biochemical; settings: for IC50: fibrin plate, hydrolysed area reduced to 50% of control; for B: relative efficiency, tPA: related to the activity of C1 (1/IC50 = 1)
Chain of tissue plasminogen activator (tPA) (P00750 36-562, species assumed): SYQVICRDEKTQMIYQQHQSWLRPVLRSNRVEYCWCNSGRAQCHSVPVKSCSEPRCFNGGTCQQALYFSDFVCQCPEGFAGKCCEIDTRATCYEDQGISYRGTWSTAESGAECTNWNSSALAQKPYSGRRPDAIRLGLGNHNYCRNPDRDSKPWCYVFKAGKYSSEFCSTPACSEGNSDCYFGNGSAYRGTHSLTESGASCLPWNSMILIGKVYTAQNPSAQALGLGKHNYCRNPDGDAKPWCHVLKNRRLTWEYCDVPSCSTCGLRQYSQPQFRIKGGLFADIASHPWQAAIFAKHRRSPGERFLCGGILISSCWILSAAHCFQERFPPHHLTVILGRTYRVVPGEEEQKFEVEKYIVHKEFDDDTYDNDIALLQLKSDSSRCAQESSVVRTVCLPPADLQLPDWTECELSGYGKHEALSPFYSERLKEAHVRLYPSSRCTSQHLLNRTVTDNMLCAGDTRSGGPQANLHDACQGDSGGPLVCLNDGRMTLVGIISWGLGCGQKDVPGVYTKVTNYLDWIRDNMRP
Source text: as §5

[9] = biological target: plasmin (PL) (Homo sapiens, UniProt P00747); assay: fibrin-plate method, plasmin; assay type: biochemical; settings: for IC50: fibrin plate, hydrolysed area reduced to 50% of control; for B: relative efficiency, PL: related to the activity of C1 (1/IC50 = 1)
Chain of plasmin (PL) (P00747 581-810 limits assumed, species assumed): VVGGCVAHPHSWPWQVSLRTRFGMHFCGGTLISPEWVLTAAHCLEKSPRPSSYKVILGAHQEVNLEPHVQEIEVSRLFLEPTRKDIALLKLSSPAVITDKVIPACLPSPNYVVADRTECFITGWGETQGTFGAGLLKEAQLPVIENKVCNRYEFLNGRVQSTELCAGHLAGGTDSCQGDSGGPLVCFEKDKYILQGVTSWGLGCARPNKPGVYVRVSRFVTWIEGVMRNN
Chain of plasmin (PL) (P00747 97-580 partner limits assumed, species assumed): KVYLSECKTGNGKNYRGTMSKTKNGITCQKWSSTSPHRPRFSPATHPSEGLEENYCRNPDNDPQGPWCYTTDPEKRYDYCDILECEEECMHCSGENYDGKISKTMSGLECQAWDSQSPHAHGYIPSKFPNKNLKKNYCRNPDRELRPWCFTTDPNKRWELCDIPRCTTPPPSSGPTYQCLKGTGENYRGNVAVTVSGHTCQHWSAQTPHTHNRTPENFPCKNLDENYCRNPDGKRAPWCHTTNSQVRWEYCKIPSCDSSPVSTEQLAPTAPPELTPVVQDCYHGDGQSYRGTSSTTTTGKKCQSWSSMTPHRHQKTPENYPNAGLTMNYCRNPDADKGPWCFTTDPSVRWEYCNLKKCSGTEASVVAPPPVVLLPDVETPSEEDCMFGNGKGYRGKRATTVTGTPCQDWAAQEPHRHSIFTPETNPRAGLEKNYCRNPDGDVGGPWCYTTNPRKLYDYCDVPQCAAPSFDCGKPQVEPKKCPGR
Source text: as §5

[10] = C. V. Jackson et al. 1993; cited from earlier work
[11] = Table 3, twofold prolongation compared to control, read-out: A: anticoagulant IC50, PT
[12] = Table 3, twofold prolongation compared to control, read-out: A: anticoagulant IC50, APTT
[13] = Table 3, twofold prolongation compared to control, read-out: A: anticoagulant IC50, TT
[14] = Table 3, read-out: B: fXa inhibiting IC50
[15] = Table 2, concentration prolonging clotting time twofold, read-out: A: anticoagulation IC50, PT
[16] = Table 2, concentration prolonging clotting time twofold, read-out: A: anticoagulation IC50, APTT
[17] = Table 2, concentration prolonging clotting time twofold, read-out: A: anticoagulation IC50, TT
[18] = Table 2, read-out: B: fXa inhibiting effect IC50

Compound | IC50 [1, 11] [nM] | IC50 [2, 12] [nM] | IC50 [3, 13] [nM] | IC50 [4, 14] [nM] | B: relative efficiency, UK [7] | B: relative efficiency, tPA [8] | B: relative efficiency, PL [9] | further results
CCOC(=O)NC(C(=O)N1CCC[C@H]1C(=O)N[C@H](C=O)CCCNC(=N)N)C1CCC1 (mixture of isomers) [Example C10, Ethoxycarbonyl-DL-cyclobutyl-glycyl-L-prolyl-L-arginine aldehyde] | 6150 | 770 | 880 | 82 |  |  |  | 
COC(=O)N[C@H](CC1CCC1)C(=O)N1CCC[C@H]1C(=O)N[C@H](C=O)CCCNC(=N)N [Example 2, methoxycarbonyl-3-cyclobutyl-D-alanyl-L-prolyl-L-arginine aldehyde] (Moc-[dCba]-Pro-Arg-aldehyde) | 1120 | 250 | 110 | 388 | 0.5 | 1.4 | 0.23 | IC50 [5]: 680 nM; IC50 [6]: 640 nM; IC50 [7]: 153000 nM; activity against UK, times lower than that of compound C5 ([7]; text b147, third of three enzymes): 39 times; IC50 [8]: 92000 nM; activity against tPA, times lower than that of compound C5 ([8]; text b147, second of three enzymes): 4.5 times; IC50 [9]: 235000 nM; activity against PL, times lower than that of compound C5 ([9]; text b147, first of three enzymes): 3.2 times
CCOC(=O)N[C@H](Cc1ccccc1)C(=O)N1CCC[C@H]1C(=O)N[C@H](C=O)CCCNC(=N)N [Example C6, Ethoxycarbonyl-3-phenyl-D-alanyl-L-prolyl-L-arginine aldehyde] | 1910 | 380 | 130 | 917 |  |  |  | 
CCOC(=O)NC(CC1CCCC1)C(=O)N1CCC[C@H]1C(=O)N[C@H](C=O)CCCNC(=N)N (mixture of isomers) [Example C9, Ethoxycarbonyl-3-cyclopentyl-DL-alanyl-L-prolyl-L-arginine aldehyde] | 1900 | 480 | 260 | 43 |  |  |  | 
CCOC(=O)NC(CC1CCC1)C(=O)N1CCC[C@H]1C(=O)N[C@H](C=O)CCCNC(=N)N (mixture of isomers) [Example C8, Ethoxycarbonyl-3-cyclobutyl-DL-alanyl-L-prolyl-L-arginine aldehyde] | 1490 | 500 | 130 | 68 |  |  |  | 
CC(C)(C)OC(=O)N[C@H](Cc1ccccc1)C(=O)N1CCC[C@H]1C(=O)N[C@H](C=O)CCCNC(=N)N [Example C5, BOC-D-Phe-Pro-Arg-H] |  |  |  |  | 27.3 | 22.0 | 4.5 | IC50 [1, 15]: 2270 nM; antifibrinolytic effect in vivo [10]: well detectable; IC50 [2, 16]: 760 nM; IC50 [3, 17]: 200 nM; IC50 [4, 18]: 910 nM; fXa IC50, times lower than C1 ([4]; text b89): 10 times
COC(=O)N[C@H](Cc1ccccc1)C(=O)N1CCC[C@H]1C(=O)N[C@H](C=O)CCCNC(=N)N [Example C7, Methoxycarbonyl-3-phenyl-D-alanyl-L-prolyl-L-arginine aldehyde] |  |  |  |  |  |  |  | IC50 [1, 15]: 1960 nM; IC50 [2, 16]: 290 nM; IC50 [3, 17]: 200 nM; IC50 [4, 18]: 130 nM
CCOC(=O)N[C@H](CC1CCCC1)C(=O)N1CCC[C@H]1C(=O)N[C@H](C=O)CCCNC(=N)N [Example 4, Ethoxycarbonyl-3-cyclopentyl-D-alanyl-L-prolyl-L-arginine aldehyde] | 1410 | 240 | 100 | 27 | 1.8 | 3.5 | 0.55 | IC50 [5]: 490 nM; IC50 [6]: 670 nM; IC50 [7]: 46000 nM; IC50 [8]: 38000 nM; IC50 [9]: 98000 nM
